A short description of data set [1]: Theacrine-caffeine interaction study: heart rate, blood pressure, rate pressure product, tolerability. The conditions noted are these: at the doses tested, administered alone or in combination. The text has this:
(§1) Study Design and Procedures. […] Theacrine, administered as iTeaCrine.®, was provided by Compound Solutions (Carlsbad, Calif). […] Treatment sequence was randomized using a 4×4 Latin square. There was an approximate 1-week washout period between treatments for all subjects.
(§2) Test Visit Procedures. […] A catheter was inserted into the forearm vein for blood sampling. Duplicate measurements of resting heart rate and blood pressure were taken pre-dose and prior to each timed blood sample. In addition, respiratory rate was counted in one minute and body temperature was measured using an ear scanning thermometer (dual readings taken at each time).
Differences between treatment group values were determined for systolic blood pressure (SBP), diastolic blood pressure (DBP), rate pressure product, and heart rate. Parametric data were analyzed by paired Student's t tests of mean differences in values between treatment groups. Statistical significance was defined a priori as a 2-sided or <0.05.

A short description of data set [2]: Theacrine-caffeine interaction study: single oral dose plasma pharmacokinetics (LC-MS/MS, noncompartmental). The format is in vivo, human.
Description: Theacrine pharmacokinetics in humans has not been systematically characterized. Therefore, one purpose of this study, among others, was to determine theacrine pharmacokinetics and dose-linearity following oral administration in humans.
Eight healthy nonsmokers, including 4 men and 4 women, were recruited for the experiment.
as §1, §2
All subjects were instructed to consume their usual diet throughout the study period, with the exception of the actual days of testing. During the two days prior to each test day, subjects recorded all food and drink consumed and attempted to mimic this intake for the two-day period prior to subsequent visits. Diet records were analyzed using nutrient analysis software (Food Processor SQL, version 9.9; ESHA Research, Salem, Oreg.). For the actual test days, standardized meals (meal replacement food bars [Clif “Builder's 20 g Protein Bar”] and ready-to-drink shakes [Orgain Organic Nutrition™]) were provided to the subjects after sample collection at hour 2 and hour 6 (one shake and one-half bar at each time). Subjects were also provided with adequate meal replacement bars and shakes to consume following the 8 hour sample collection. (during their time outside the lab). Each bar contained 280 calories, 10 grams of fat, 29 grams of carbohydrate, and 20 grams of protein. Each shake contained 250 calories, 7 grams of fat, 32 grams of carbohydrate, and 16 grams of protein. No food other than what was provided to the subjects was allowed during each study day, including both time spent in the lab and outside the lab. […] The subjects returned the following morning for the 24 hour blood collection, again in a 10 hour fasted state. The same volume of meal replacement bars or shakes was consumed by each subject during each visit (both in lab and outside lab).
Pharmacokinetic Study. Plasma concentration-time data were evaluated using noncompartmental methods in Phoenix WinNonlin (version 7.0; Pharsight Corporation, Mountain View, Calif) with adjustment for lag time after oral administration. The maximum concentration (Cmax), lag time (talag), and time of maximum concentration (tmax) were determined from the plasma concentration versus time data. The area under the plasma concentration-time curve from time 0 to infinity (was calculated using the trapezoidal rule extrapolated to time infinity). […] The oral clearance (CL/F) was calculated by dividing the oral dose by AUC0-∞. The apparent volume of distribution during the terminal elimination phase (Vz/F) was calculated by dividing CL/F by k. […]

Data set [3] is described as follows: Fourteen day study of repetitive dosing of theacrine and caffeine: psychometric indices. The format is in vivo, human.
Data set [4] can be described thus: Single dose theacrine, caffeine or combination: subjective feelings on 10 cm visual analog scale. In kind it is in vivo, human. The procedure: Subjects rated their subjective feelings using a 10 cm visual analog scale at 30 minutes, 1, 2, 3, 4, and 5 hours post ingestion and performed the trail making test (TMT) of cognitive performance at baseline and at hours 2 and 4 post ingestion.

The mark [5] stands for this setting: both sexes, human, in vivo, 150 mg.
Where [6] appears, read: from baseline to 2 hours post-ingestion.

The MRT is the average time that molecules of a dose stay in the body. One may read the Vd/F as the volume of distribution divided by bioavailability. In general, CL/F refers to the apparent clearance, not corrected for the fraction that reaches the circulation. Broadly, the Tmax is the time from dosing to the highest level.

The structures appear in SMILES notation. Like-named read-outs stand apart in the source and are kept apart here.

Take `Cn1c(=O)c2c(ncn2C)n(C)c1=O` [Caffeine, caffeine, reference compound]: the “effect on baseline hemodynamic parameters, e.g. heart rate and blood pressure” value in data set [1] was “no effect”. In addition, in data set [2] (setting [5]), the MRT was 8.4 ± 4.3 h and the half-life is 6.2 ± 3.8 h. Moreover, the Vd/F in data set [2] (both sexes, human, in vivo, 150 mg, Vd/F) worked out at 33.5 ± 13.7 L. Also, the dose-adjusted Cmax in data set [2] (both sexes, human, in vivo, po, 150 mg) is 33.4 ± 9.5 ng/mL/mg. The “caffeine pharmacokinetics following caffeine alone or caffeine plus theacrine co-ingestion” value in data set [2] (caffeine 150 mg vs theacrine 125 mg + caffeine 150 mg) is recorded as “similar”. In data set [2] (human, in vivo, 150 mg), this molecule had an AUC of 262.0 ± 74.1 ng·h/mL/mg and a CL/F of 4.1 ± 1.1 L/h. In data set [3], the anxiety result is “increased anxiety scores”; the “psychometric indices of energy, focus, concentration, motivation and mood” value is “decreasing levels of energy, focus and concentration by Day 5”. Also, the “self-reported motivation to exercise” value in data set [4] (caffeine 150 mg, 125 mg theacrine and 150 mg caffeine) was “significantly increased”. Further, in data set [4] (setting [6]), the motivation to exercise entry is “significantly increased”, the sense of energy result is given as “significantly increased” and the subjective focus entry is on record as “significant increase”.

As to `Cn1c(=O)[nH]c2ncn(C)c2c1=O` [Paraxanthine, paraxanthine], the Tmax in data set [2] (both sexes, human, plasma, oral, 150 mg) stood at 5 h. Besides, the dose-adjusted Cmax in data set [2] (both sexes, human, plasma, oral, 150 mg, paraxanthine in plasma, Condition 3: Caffeine 150 mg, dose-adjusted, mean ± SD) was determined as 7.3 ± 1.5 ng/mL/mg; in data set [2] (both sexes, human, plasma, oral, paraxanthine in plasma, Condition 4: Theacrine 125 mg + Caffeine 150 mg, dose-adjusted, mean ± SD), 8.4 ± 3.5 ng/mL/mg. For the same molecule, the MRT in data set [2] (both sexes, human, plasma, oral, 150 mg, read-out: MRT) was found to be 19.1 ± 18.6 h. Further, the half-life in data set [2] (both sexes, human, plasma, oral, 150 mg, read-out: t1/2 (converted)) was 12.5 ± 12.7 h. Besides, the AUC in data set [2] (paraxanthine in plasma, Condition 3: Caffeine 150 mg, dose-adjusted, mean ± SD) is 174 ± 152 ng·h/mL/mg; in data set [2] (paraxanthine in plasma, Condition 4: Theacrine 125 mg + Caffeine 150 mg, dose-adjusted, mean ± SD) it was 209 ± 202 ng·h/mL/mg.
